Assay results from US9849141B2, “Use of spironolactone-based composition that exhibits an inhibitory action on T-lymphocyte activation which is useful for preventing and/or treating multiple sclerosis” (PONTIFICIA UNIVERSIDAD CATOLICA DE CHILE, priority 2010, dated 2017).

What was measured:
[1] = tested on: dendritic cells / CD4+ T-cells; details: cited from earlier work
[2] = tested on: experimental autoimmune encefalomyelitis (EAE); details: administration to EAE mice; for MR inhibitors also in mice that did not receive aldosterone; cited from earlier work
[3] = tested on: CD8+ or CD4+ T-lymphocytes co-cultured with antigen-presenting cells (dendritic cells); experiment: T-lymphocyte activation by ovalbumin-pulsed antigen-presenting cells, IL-2 ELISA; format: cell-based, transgenic mice; details: 5 ug/ml during co-culture, 24 hrs, antigen-presenting cells pulsed with 10 ug/ml ovalbumin (FIG. 2)
Description: FIG. 2. Plots showing the effect of a composition comprising spironolactone in the inhibition of activation of T-lymphocytes through antigen-presenting cells. Antigen-presenting cells (dendritic cells) were pulsed with ovalbumin, washed and co-cultured with CD8+ or CD4+T-lymphocytes obtained from transgenic mice whose TCR specifically recognizes an ovalbumin derived peptide charged on class I or II MHC respectively. At the same time, the culture was treated with spironolactone (-□-) eplerenone (-▾-) or not treated (control -▴-) and after 24 hours, the supernatant was withdrawn and the presence of interleukin-2 (IL-2) assayed using ELISA. *p<0.05 one-way ANOVA.
Antigen-presenting cells were pulsed with 10 ug/ml of ovalbumin (OVA) protein over 24 hrs, washed and then co-cultured with CD8+ or CD4+T-lymphocytes obtained from transgenic mice whose TCR recognizes specifically a ovalbumin derived peptide charged in MHC class I or II, respectively. […] After 24 hrs, the supernatant was withdrawn and IL-2 secretion, a cytokine secreted by activated T-lymphocytes, was assayed using ELISA assay. In this specific immunological test, it is expected the activation of said T-lymphocytes and, therefore, an increase in IL-2 secretion.

[4] = tested on: experimental autoimmune encefalomyelitis (EAE) induced with MOG 35-55 peptide; experiment: Effect of a spironolactone composition in EAE mice (clinical score); format: in vivo, C57BL/6 female mice; details: EAE induced C57BL/6 mice, pellets supplemented with daily dose of 1.8 mg per mouse, oral, vs control group on standard pellets (FIG. 1)
[5] = tested on: purified CD8+ T-lymphocytes; experiment: T-lymphocyte activation by plate-bound anti-CD3ε independent of antigen-presenting cells, IL-2 ELISA; format: cell-based; details: 5 ug/ml, 24 hrs, plate activated with different concentrations of anti-CD3ε (FIG. 3)
Description: FIG. 3: Plots showing the effect of a composition comprising spironolactone or epleronone in the activation of T-lymphocytes independent from antigen-presenting dendritic cells. An ELISA plate was activated with different concentrations of anti-CD3ε overnight, and then purified CD8+ T-lymphocytes were added and treated for 24 hrs with spironolactone (-□-), eplerenone (-▾-) o not treated (control -▴-). When the time was completed the supernatant was extracted and the IL-2 levels were determined using ELISA.
The following experiment was made in order to determine if spironolactone acts directly on T-lymphocytes or the effect is on the function of antigen-presenting cells. An ELISA plate was activated with different concentrations of anti-CD3ε overnight, and then, purified CD8+T-lymphocytes were added and treated with either spironolactone or epleronone (5 ug/ml) during 24 hrs. After that period, the supernatant was withdrawn and IL-2 levels were determined using ELISA. This assay is based on that T-lymphocytes, beside expressing TCR, express a protein denominated CD3, which transduces the activating signal, generated by the interaction of TCR with the antigenic peptide bound to the MHC of the antigen-presenting cell, to the interior of the T-lymphocyte.

[6] = tested on: immune synapsis between T-lymphocytes and antigen-presenting cells; experiment: Immune synapsis between antigen-presenting cells and T-lymphocytes, Golgi polarization by confocal fluorescence microscopy; format: cell-based; details: 5 ug/ml in culture medium, co-culture 2 hrs (FIG. 4B)
From the text: FIG. 4: Photographs using confocal fluorescence microscopy, showing immunological synapsis between antigen-presenting dendritic cells and T-lymphocyte. T-lymphocytes were dyed with BODIPY FL C5-Ceramide, which is directed to the Golgi apparatus, while antigen-presenting cells were dyed with CMTMR-Orange and co-cultured without spironolactone (FIG. 4A) or in the presence of spironolactone (FIG. 4B) during 2 hrs, afterwards, the cells were observed under a confocal fluorescence microscope.
It has been determined that an efficient activation of T-lymphocytes requires an stable interaction between the antigen-presenting cell and the T-lymphocyte, which is known as “immune synapsis”. A stable immune synapsis is translated in a polarization of the Golgi apparatus, an organelle in charge of protein transport, of the T-lymphocyte towards the contacting site with the antigen-presenting cell. In this way, it is possible to observe an efficient immune synapsis checking if a polarization from Golgi apparatus towards the contacting site with the antigen-presenting cell exists or not. […] Afterwards, both cell groups were contacted and the interaction between cells using a confocal fluorescence microscope was observed. […]

[7] = tested on: systemic lupus erythematosus-like disease in FcγII receptor knockout mice; experiment: Effect of spironolactone in systemic lupus erythematosus mice; format: in vivo; details: pellets supplemented with 1.8 mg daily, oral, compared to regularly fed mice (FIG. 5)

For `C[C@]12CCC(=O)C=C1CC[C@@H]1[C@@H]2[C@@H](O)C[C@]2(C=O)[C@@H](C(=O)CO)CC[C@@H]12` [aldosterone], the “induction of T helper 17 (Th17) phenotype in CD4+ T-cells by stimulated dendritic cells” value ([1]; dendritic cells stimulated with aldosterone) is listed as “induce the T helper 17 (Th17) phenotype in CD4+ T-cells” and the “effect on disease in EAE mice” value [2] is listed as “showed a deterioration in their disease”.
For `COC(=O)[C@@H]1CC2=CC(=O)CC[C@]2(C)[C@@]23O[C@@H]2C[C@@]2(C)[C@@H](CC[C@@]24CCC(=O)O4)[C@H]13` [epleronone], the “activation of T-lymphocytes (IL-2 secretion, ELISA)” value [3] is listed as “no such inhibiting effect on the activation of T-lymphocytes is observed” and the “suppression of activator effects of aldosterone in the function of dendritic cells” value [1] is listed as “could be suppressed”.
In the case of `CC(=O)S[C@@H]1CC2=CC(=O)CC[C@]2(C)[C@H]2CC[C@@]3(C)[C@@H](CC[C@@]34CCC(=O)O4)[C@H]12` [spironolactone], the “clinical score associated with the disease” value [4] is reported as “significantly reduces the clinical score”, the “activation of T-lymphocytes (IL-2 secretion, ELISA)” value [3] is reported as “inhibits the activation of T-lymphocytes” and the “secretion of IL-2 (ELISA)” value [5] is reported as “same inhibiting effect on the secretion of IL-2”. The “immune synapsis (polarization of the Golgi apparatus of the T-lymphocyte towards the antigen-presenting cell)” value [6] was “immune synapsis is not produced”, the “deposition of immune complexes in the kidney” value [7] was “did not observe a decrease in the deposition of immune complexes in the kidney” and the “suppression of activator effects of aldosterone in the function of dendritic cells” value [1] was “could be suppressed”. For the same compound, the “effect on disease in EAE mice” value [2] was “only spironolactone had protecting effects”.
